From article PMC11995724, “Antibiotic target discovery by integrated phenotypic and activity-based profiling of electrophilic fragments” (Cell chemical biology, 2025)

Experiment: in vitro
Conditions: human, hek293t cells

**Q.** For `C=CC(=O)N1CCS(=O)(=O)N2CCCC12` (stereo not drawn) [3-H18, 1-(prop-2-enoyl)-hexahydro-1H-4lambda6-pyrrolo[1,2-b][1,2,4]thiadiazine-4,4-dione], which viability at 48 h, 25 µM is on record?
**A.** 93.3%

**Q.** For `C=CC(=O)NCCCN1CCCS1(=O)=O` [3-H19, N-[3-(1,1-dioxo-1lambda6,2-thiazolidin-2-yl)propyl]prop-2-enamide], which viability at 48 h, 25 µM is on record?
**A.** 88.4%

**Q.** Which viability at 48 h, 25 µM does the source give for `C=CC(=O)NC(c1ccc(F)cc1)C1CC1` (stereo not drawn) [3-H20, N-[cyclopropyl(4-fluorophenyl)methyl]prop-2-enamide] here?
**A.** 89.2%

**Q.** Which viability at 48 h, 25 µM does the source give for `C=CC(=O)NCc1ccnn1C1CCCC1` [3-H21, N-[(1-cyclopentyl-1H-pyrazol-5-yl)methyl]prop-2-enamide] here?
**A.** 74.5%

**Q.** For `C=CC(=O)NCc1ccccc1S(=O)(=O)N1CCOCC1` [3-H22, N-{[2-(morpholine-4-sulfonyl)phenyl]methyl}prop-2-enamide], which viability at 48 h, 25 µM is on record?
**A.** 89.1%

**Q.** Which viability at 48 h, 25 µM does the source give for `C=CC(=O)Nc1cnn(-c2ccccc2)c1C(F)F` [3-I03, N-[5-(difluoromethyl)-1-phenyl-1H-pyrazol-4-yl]prop-2-enamide] here?
**A.** 41.7%

**Q.** For `C=CC(=O)NCc1ccc(C(=O)N2CCNC(=O)CC2)cc1` [3-I04, N-{[4-(5-oxo-1,4-diazepane-1-carbonyl)phenyl]methyl}prop-2-enamide], which viability at 48 h, 25 µM is on record?
**A.** 93.2%

**Q.** For `C=CC(=O)N(CC)Cc1cccc2c1OCO2` [3-I05, N-[(1,3-dioxaindan-4-yl)methyl]-N-ethylprop-2-enamide], which viability at 48 h, 25 µM is on record?
**A.** 47.8%

**Q.** Which viability at 48 h, 25 µM does the source give for `C=CC(=O)NCc1ccc(C(=O)N2CCCC23CCOC3=O)cc1` (stereo not drawn) [3-I06, N-[(4-{6-oxo-7-oxa-1-azaspiro[4.4]nonane-1-carbonyl}phenyl)methyl]prop-2-enamide] here?
**A.** 88.5%

**Q.** For `C=CC(=O)N1CCC(c2noc3cc(F)ccc23)CC1` [3-I07, 1-[4-(6-fluoro-1,2-benzoxazol-3-yl)piperidin-1-yl]prop-2-en-1-one], which viability at 48 h, 25 µM is on record?
**A.** 48.2%

**Q.** With `C=CC(=O)N(CC)CC(=O)N1CCCC(N2CCCS2(=O)=O)C1` (stereo not drawn) [3-I08, N-{2-[3-(1,1-dioxo-1lambda6,2-thiazolidin-2-yl)piperidin-1-yl]-2-oxoethyl}-N-ethylprop-2-enamide] as the compound, how does the viability at 48 h, 25 µM read?
**A.** 91.2%

**Q.** With `C=CC(=O)N(C)Cc1cc2ccccc2o1` [3-I09, N-[(1-benzofuran-2-yl)methyl]-N-methylprop-2-enamide] as the compound, how does the viability at 48 h, 25 µM read?
**A.** 47.1%

**Q.** For `C=CC(=O)N1CCC(C(=O)NCc2nccn2C)(c2ccccc2)CC1` [3-I10, N-[(1-methyl-1H-imidazol-2-yl)methyl]-4-phenyl-1-(prop-2-enoyl)piperidine-4-carboxamide], which viability at 48 h, 25 µM is on record?
**A.** 92.9%

**Q.** For `C=CC(=O)N1CCOC2(CCCC2)C1` [3-I11, 1-{6-oxa-9-azaspiro[4.5]decan-9-yl}prop-2-en-1-one], which viability at 48 h, 25 µM is on record?
**A.** 44.3%

**Q.** Which viability at 48 h, 25 µM does the source give for `C=CC(=O)N1CC(C)OC2(CCOCC2)C1` (stereo not drawn) [3-I12, 1-{2-methyl-1,9-dioxa-4-azaspiro[5.5]undecan-4-yl}prop-2-en-1-one] here?
**A.** 91.6%

**Q.** For `C=CC(=O)N1CCC(C(=O)Nc2nc3cc(F)ccc3n2CC)CC1` [3-I13, N-(1-ethyl-5-fluoro-1H-1,3-benzodiazol-2-yl)-1-(prop-2-enoyl)piperidine-4-carboxamide], which viability at 48 h, 25 µM is on record?
**A.** 62.5%

**Q.** Which viability at 48 h, 25 µM does the source give for `C=CC(=O)N(C)CC(=O)NC(C)c1ncc(C)s1` (stereo not drawn) [3-I14, N-methyl-N-({[1-(5-methyl-1,3-thiazol-2-yl)ethyl]carbamoyl}methyl)prop-2-enamide] here?
**A.** 69.4%

**Q.** With `C=CC(=O)N1CC(OCc2ccccc2F)C1` [3-I15, 1-{3-[(2-fluorophenyl)methoxy]azetidin-1-yl}prop-2-en-1-one] as the compound, how does the viability at 48 h, 25 µM read?
**A.** 40.4%

**Q.** Which viability at 48 h, 25 µM does the source give for `C=CC(=O)N1CCN(Cc2ncon2)CC1` [3-I16, 1-{4-[(1,2,4-oxadiazol-3-yl)methyl]piperazin-1-yl}prop-2-en-1-one] here?
**A.** 106%

**Q.** For `C=CC(=O)N1CCC(C(=O)NC2CCCc3nc(C)ncc32)CC1` (stereo not drawn) [3-I17, N-(2-methyl-5,6,7,8-tetrahydroquinazolin-5-yl)-1-(prop-2-enoyl)piperidine-4-carboxamide], which viability at 48 h, 25 µM is on record?
**A.** 32%

**Q.** With `C=CC(=O)N1CC[C@H](Oc2ccccc2)C1` [3-I18, 1-[(3S)-3-phenoxypyrrolidin-1-yl]prop-2-en-1-one] as the compound, how does the viability at 48 h, 25 µM read?
**A.** 103%

**Q.** With `C=CC(=O)N1CCOCC1c1ccnn1C` (stereo not drawn) [3-I19, 1-[3-(1-methyl-1H-pyrazol-5-yl)morpholin-4-yl]prop-2-en-1-one] as the compound, how does the viability at 48 h, 25 µM read?
**A.** 49.7%

**Q.** With `C=CC(=O)NCc1ccc(N2CCN(C)CC2)cc1` [3-I20, N-{[4-(4-methylpiperazin-1-yl)phenyl]methyl}prop-2-enamide] as the compound, how does the viability at 48 h, 25 µM read?
**A.** 112%

**Q.** Which viability at 48 h, 25 µM does the source give for `C=CC(=O)N1CCC(C(=O)NC2CCN(C(=O)C(C)(C)C)CC2)CC1` [3-I21, N-[1-(2,2-dimethylpropanoyl)piperidin-4-yl]-1-(prop-2-enoyl)piperidine-4-carboxamide] here?
**A.** 52.8%

**Q.** For `C=CC(=O)N1CCC(c2nc3c(s2)CCC3)CC1` [3-I22, 1-(4-{4H,5H,6H-cyclopenta[d][1,3]thiazol-2-yl}piperidin-1-yl)prop-2-en-1-one], which viability at 48 h, 25 µM is on record?
**A.** 91.2%

**Q.** For `C=CC(=O)N1CCC(C(=O)NCCn2c(=O)[nH]c3ccccc32)CC1` [3-J03, N-[2-(2-oxo-2,3-dihydro-1H-1,3-benzodiazol-1-yl)ethyl]-1-(prop-2-enoyl)piperidine-4-carboxamide], which viability at 48 h, 25 µM is on record?
**A.** 72.2%

**Q.** For `C=CC(=O)Nc1cc(NC(=O)c2ccc([N+](=O)[O-])o2)ccc1F` [3-J04, N-[4-fluoro-3-(prop-2-enamido)phenyl]-5-nitrofuran-2-carboxamide], which viability at 48 h, 25 µM is on record?
**A.** 0.415%

**Q.** For `C=CC(=O)N1CCC(C(=O)Nc2c[nH]c(=O)c(C)c2)CC1` [3-J05, N-(5-methyl-6-oxo-1,6-dihydropyridin-3-yl)-1-(prop-2-enoyl)piperidine-4-carboxamide], which viability at 48 h, 25 µM is on record?
**A.** 51.5%

**Q.** For `C=CC(=O)N1CCC(C(=O)N2CC=CCC2)(c2ccccc2)CC1` [3-J06, 1-[4-phenyl-4-(1,2,3,6-tetrahydropyridine-1-carbonyl)piperidin-1-yl]prop-2-en-1-one], which viability at 48 h, 25 µM is on record?
**A.** 61.7%

**Q.** For `C=CC(=O)N(C)CC(=O)Nc1ccc(N2CCOCC2=O)c(C)c1` [3-J07, N-methyl-N-({[3-methyl-4-(3-oxomorpholin-4-yl)phenyl]carbamoyl}methyl)prop-2-enamide], which viability at 48 h, 25 µM is on record?
**A.** 51.4%

**Q.** With `C=CC(=O)N1CCC(C(=O)NCc2ccc(C(N)=O)cc2)CC1` [3-J08, N-[(4-carbamoylphenyl)methyl]-1-(prop-2-enoyl)piperidine-4-carboxamide] as the compound, how does the viability at 48 h, 25 µM read?
**A.** 82.2%

**Q.** Which viability at 48 h, 25 µM does the source give for `C=CC(=O)NCCc1nnc(-c2ccccc2)o1` [3-J09, N-[2-(5-phenyl-1,3,4-oxadiazol-2-yl)ethyl]prop-2-enamide] here?
**A.** 70.8%

**Q.** For `C=CC(=O)NCc1nc2ccccc2c(=O)n1C` [3-J10, N-[(3-methyl-4-oxo-3,4-dihydroquinazolin-2-yl)methyl]prop-2-enamide], which viability at 48 h, 25 µM is on record?
**A.** 88.6%

**Q.** For `C=CC(=O)N(Cc1ccc(-n2cncn2)cc1)C1CC1` [3-J11, N-cyclopropyl-N-{[4-(1H-1,2,4-triazol-1-yl)phenyl]methyl}prop-2-enamide], which viability at 48 h, 25 µM is on record?
**A.** 40.7%

**Q.** For `C=CC(=O)N1CCC(C(=O)Nc2ccc(CC)cc2)CC1` [3-J12, N-(4-ethylphenyl)-1-(prop-2-enoyl)piperidine-4-carboxamide], which viability at 48 h, 25 µM is on record?
**A.** 85.6%

**Q.** For `C=CC(=O)NCc1csc2nccn12` [3-J13, N-({imidazo[2,1-b][1,3]thiazol-3-yl}methyl)prop-2-enamide], which viability at 48 h, 25 µM is on record?
**A.** 76.8%

**Q.** For `C=CC(=O)N1CCOCC2(COCCN2C)C1` (stereo not drawn) [3-J14, 1-{1-methyl-4,8-dioxa-1,11-diazaspiro[5.6]dodecan-11-yl}prop-2-en-1-one], which viability at 48 h, 25 µM is on record?
**A.** 96%

**Q.** For `C=CC(=O)NCC1CS(=O)(=O)c2ccccc21` (stereo not drawn) [3-J15, N-[(1,1-dioxo-2,3-dihydro-1lambda6-benzothiophen-3-yl)methyl]prop-2-enamide], which viability at 48 h, 25 µM is on record?
**A.** 81.2%

**Q.** Which viability at 48 h, 25 µM does the source give for `C=CC(=O)Nc1ccc(-n2ccccc2=O)cc1F` [3-J16, N-[2-fluoro-4-(2-oxo-1,2-dihydropyridin-1-yl)phenyl]prop-2-enamide] here?
**A.** 101%

**Q.** For `C=CC(=O)NCCS(=O)(=O)c1cccs1` [3-J17, N-[2-(thiophene-2-sulfonyl)ethyl]prop-2-enamide], which viability at 48 h, 25 µM is on record?
**A.** 93.4%

**Q.** With `C=CC(=O)N1CCC(C(=O)Nc2n[nH]c3cc(C#N)c(C)cc23)CC1` [3-J18, N-(6-cyano-5-methyl-1H-indazol-3-yl)-1-(prop-2-enoyl)piperidine-4-carboxamide] as the compound, how does the viability at 48 h, 25 µM read?
**A.** 90.3%

**Q.** For `C=CC(=O)NCc1ccc(N2CC(C)CS2(=O)=O)cc1` (stereo not drawn) [3-J19, N-{[4-(4-methyl-1,1-dioxo-1lambda6,2-thiazolidin-2-yl)phenyl]methyl}prop-2-enamide], which viability at 48 h, 25 µM is on record?
**A.** 95.4%

**Q.** With `C=CC(=O)NC(c1ccc(F)cc1)c1ccn(C)n1` (stereo not drawn) [3-J20, N-[(4-fluorophenyl)(1-methyl-1H-pyrazol-3-yl)methyl]prop-2-enamide] as the compound, how does the viability at 48 h, 25 µM read?
**A.** 99.9%

**Q.** Which viability at 48 h, 25 µM does the source give for `C=CC(=O)N(Cc1cn2ccccc2n1)C1CC1` [3-J21, N-cyclopropyl-N-({imidazo[1,2-a]pyridin-2-yl}methyl)prop-2-enamide] here?
**A.** 73.1%

**Q.** With `C=CC(=O)NCCC(=O)N1CCN(c2ccccc2Cl)CC1` [3-J22, N-{3-[4-(2-chlorophenyl)piperazin-1-yl]-3-oxopropyl}prop-2-enamide] as the compound, how does the viability at 48 h, 25 µM read?
**A.** 88.6%

**Q.** With `C=CC(=O)N1CCC(C(O)c2ccnn2C)CC1` (stereo not drawn) [3-K03, 1-{4-[hydroxy(1-methyl-1H-pyrazol-5-yl)methyl]piperidin-1-yl}prop-2-en-1-one] as the compound, how does the viability at 48 h, 25 µM read?
**A.** 59%

**Q.** With `C=CC(=O)NCCC(=O)N1CCOC(c2nc(C)cs2)C1` (stereo not drawn) [3-K04, N-{3-[2-(4-methyl-1,3-thiazol-2-yl)morpholin-4-yl]-3-oxopropyl}prop-2-enamide] as the compound, how does the viability at 48 h, 25 µM read?
**A.** 89.7%

**Q.** With `C=CC(=O)N1CCC(C(=O)NOC2CCCC2)(c2ccccc2)CC1` [3-K06, N-(cyclopentyloxy)-4-phenyl-1-(prop-2-enoyl)piperidine-4-carboxamide] as the compound, how does the viability at 48 h, 25 µM read?
**A.** 77.1%

**Q.** With `C=CC(=O)N1CCCC1(COC)C(N)=O` (stereo not drawn) [3-K07, 2-(methoxymethyl)-1-(prop-2-enoyl)pyrrolidine-2-carboxamide] as the compound, how does the viability at 48 h, 25 µM read?
**A.** 143%

**Q.** Which viability at 48 h, 25 µM does the source give for `C=CC(=O)NCc1ccc(C(=O)N2CCC(c3ccn[nH]3)CC2)cc1` [3-K08, N-({4-[4-(1H-pyrazol-5-yl)piperidine-1-carbonyl]phenyl}methyl)prop-2-enamide] here?
**A.** 95.2%

**Q.** Which viability at 48 h, 25 µM does the source give for `C=CC(=O)N1CCC(n2ccnn2)CC1` [3-K09, 1-[4-(1H-1,2,3-triazol-1-yl)piperidin-1-yl]prop-2-en-1-one] here?
**A.** 65.2%
